Drawing on ChEMBL document CHEMBL1138099, “Synthesis and structure-activity studies of antibacterial oxazolidinones containing dihydrothiopyran or dihydrothiazine C-rings” (2006), this text covers MIC for 26 molecules.

Converted amounts (≈) assume the structure as drawn.

Holding throughout (format): functional
Test [1] has as its system Haemophilus influenzae. Briefly: Antimicrobial activity against Haemophilus influenzae.
Test [2] has as its system Staphylococcus aureus. Briefly: Antimicrobial activity against Staphylococcus aureus.
Test [3] concerns Streptococcus pneumoniae. Briefly: Antimicrobial activity against Streptococcus pneumoniae.
Test [4] concerns Enterococcus faecium. Briefly: Antimicrobial activity against Enterococcus faecium UC12712.
For test [5], the system named is Moraxella catarrhalis. Briefly: Antimicrobial activity against Moraxella catarrhalis.

In the case of `CC(=O)NC[C@H]1CN(c2cc(F)c(N3CCS(=O)(=O)CC3)c(F)c2)C(=O)O1`, the MIC in test [1] is 4 µg/mL (≈ 9.92 µM); in test [2] it was 2 µg/mL (≈ 4.96 µM); in test [3] it was 1 µg/mL (≈ 2.48 µM); in test [4] it was 2 µg/mL (≈ 4.96 µM); in test [5], 4 µg/mL (≈ 9.92 µM).
With `O=C(NC[C@H]1CN(c2cc(F)c(C3C=CS(=O)(=O)CC3)c(F)c2)C(=O)O1)C(Cl)Cl` (stereo partly drawn), the MIC in test [1] is 8 µg/mL (≈ 17 µM); in test [2], 2 µg/mL (≈ 4.26 µM); in test [3], 0.5 µg/mL (≈ 1.07 µM); in test [4], 2 µg/mL (≈ 4.26 µM); in test [5] it was 4 µg/mL (≈ 8.52 µM).
With `O=C1O[C@@H](C/N=C(/S)C(F)F)CN1c1ccc(C2C=CS(=O)(=O)CC2)cc1` (stereo partly drawn), the MIC in test [1] worked out at 8 µg/mL (≈ 19.2 µM); in test [2] it was 2 µg/mL (≈ 4.8 µM); in test [3], 0.5 µg/mL (≈ 1.2 µM); in test [4], 2 µg/mL (≈ 4.8 µM); in test [5], 4 µg/mL (≈ 9.6 µM).
As for `CC(=O)NC[C@H]1CN(c2ccc(N3C=CS(=O)(=O)CC3)c(F)c2)C(=O)O1`, the MIC in test [1] worked out at 4 µg/mL (≈ 10.4 µM); in test [2] it was 4 µg/mL (≈ 10.4 µM); in test [3], 0.5 µg/mL (≈ 1.3 µM); in test [4] it was 2 µg/mL (≈ 5.22 µM); in test [5], 2 µg/mL (≈ 5.22 µM).
`O=C(NC[C@H]1CN(c2cc(F)c(C3C=CS(=O)(=O)CC3)c(F)c2)C(=O)O1)C(F)F` (stereo partly drawn): the MIC is 8 µg/mL (≈ 18.3 µM) in test [1]; 2 µg/mL (≈ 4.58 µM) in test [2]; 1 µg/mL (≈ 2.29 µM) in test [3]; 2 µg/mL (≈ 4.58 µM) in test [4]; 8 µg/mL (≈ 18.3 µM) in test [5].
Turning to `CC(=O)NC[C@H]1CN(c2cc(F)c(N3C=CS(=O)(=O)CC3)c(F)c2)C(=O)O1`, the MIC in test [1] amounted to 8 µg/mL (≈ 19.9 µM); in test [2], 2 µg/mL (≈ 4.98 µM); in test [3], 0.5 µg/mL (≈ 1.25 µM); in test [4] it was 1 µg/mL (≈ 2.49 µM); in test [5] it was 4 µg/mL (≈ 9.97 µM).
For `O=C(NC[C@H]1CN(c2ccc(N3C=CS(=O)(=O)CC3)cc2)C(=O)O1)C(Cl)Cl`, in that order: 2 µg/mL (≈ 4.61 µM), 4 µg/mL (≈ 9.21 µM), 0.5 µg/mL (≈ 1.15 µM), 2 µg/mL (≈ 4.61 µM) and 2 µg/mL (≈ 4.61 µM).
For `CC(=O)NC[C@H]1CN(c2ccc(C3C=CS(=O)(=O)CC3)c(F)c2)C(=O)O1` (stereo partly drawn), in that order: 8 µg/mL (≈ 20.9 µM), 4 µg/mL (≈ 10.5 µM), 1 µg/mL (≈ 2.61 µM), 2 µg/mL (≈ 5.23 µM) and 2 µg/mL (≈ 5.23 µM).
Turning to `CC(=O)NC[C@H]1CN(c2ccc(N3CCOCC3)c(F)c2)C(=O)O1` [LINEZOLID], the MIC came out at 16 µg/mL (≈ 47.4 µM) in test [1], 4 µg/mL (≈ 11.9 µM) in test [4] and 8 µg/mL (≈ 23.7 µM) in test [5].
In the case of `CC(=O)NC[C@H]1CN(c2ccc(C3CCS(=O)(=O)CC3)c(F)c2)C(=O)O1`, the MIC came out at 4 µg/mL (≈ 10.4 µM) in test [1]; 2 µg/mL (≈ 5.2 µM) in test [2]; 0.5 µg/mL (≈ 1.3 µM) in test [3]; 2 µg/mL (≈ 5.2 µM) in test [4]; 2 µg/mL (≈ 5.2 µM) in test [5].
Regarding `O=C(NC[C@H]1CN(c2ccc(N3C=CS(=O)(=O)CC3)c(F)c2)C(=O)O1)C(Cl)Cl`, the MIC came to 2 µg/mL (≈ 4.42 µM) in test [1]; 2 µg/mL (≈ 4.42 µM) in test [2]; 0.5 µg/mL (≈ 1.11 µM) in test [3]; 1 µg/mL (≈ 2.21 µM) in test [4]; 2 µg/mL (≈ 4.42 µM) in test [5].
For the molecule `O=C1O[C@@H](C/N=C(/S)C(F)F)CN1c1ccc(C2C=CS(=O)(=O)CC2)c(F)c1` (stereo partly drawn), the MIC in test [1] was determined as 8 µg/mL (≈ 18.4 µM); in test [2], 2 µg/mL (≈ 4.6 µM); in test [3] it was 0.5 µg/mL (≈ 1.15 µM); in test [4] it was 1 µg/mL (≈ 2.3 µM); in test [5], 2 µg/mL (≈ 4.6 µM).
Consider `O=C(NC[C@H]1CN(c2cc(F)c(N3C=CS(=O)(=O)CC3)c(F)c2)C(=O)O1)C(F)F`, for which the MIC in test [1] is 4 µg/mL (≈ 9.15 µM); in test [2], 4 µg/mL (≈ 9.15 µM); in test [3], 0.5 µg/mL (≈ 1.14 µM); in test [4], 1 µg/mL (≈ 2.29 µM); in test [5], 4 µg/mL (≈ 9.15 µM).
Regarding `O=C1O[C@@H](C/N=C(/S)C(F)F)CN1c1cc(F)c(N2C=CS(=O)(=O)CC2)c(F)c1`, the MIC in test [1] came to 4 µg/mL (≈ 8.82 µM); in test [2], 1 µg/mL (≈ 2.21 µM); in test [3], 0.25 µg/mL (≈ 0.551 µM); in test [4] it was 0.25 µg/mL (≈ 0.551 µM); in test [5] it was 2 µg/mL (≈ 4.41 µM).
Consider `O=C(NC[C@H]1CN(c2ccc(N3C=CS(=O)(=O)CC3)cc2)C(=O)O1)C(F)F`, for which the MIC in test [1] came to 8 µg/mL (≈ 19.9 µM); in test [2], 4 µg/mL (≈ 9.97 µM); in test [3] it was 1 µg/mL (≈ 2.49 µM); in test [4], 2 µg/mL (≈ 4.98 µM); in test [5], 4 µg/mL (≈ 9.97 µM).
Take `O=C(NC[C@H]1CN(c2ccc(N3C=CS(=O)(=O)CC3)c(F)c2)C(=O)O1)C(F)F`: the MIC in test [1] stood at 4 µg/mL (≈ 9.54 µM); in test [2] it was 4 µg/mL (≈ 9.54 µM); in test [3], 0.5 µg/mL (≈ 1.19 µM); in test [4] it was 2 µg/mL (≈ 4.77 µM); in test [5] it was 4 µg/mL (≈ 9.54 µM).
On to `CC(=O)NC[C@H]1CN(c2ccc(C3C=CS(=O)(=O)CC3)cc2)C(=O)O1` (stereo partly drawn), for which the MIC in test [1] came to 8 µg/mL (≈ 22 µM); in test [2], 4 µg/mL (≈ 11 µM); in test [3], 1 µg/mL (≈ 2.74 µM); in test [4], 4 µg/mL (≈ 11 µM); in test [5], 8 µg/mL (≈ 22 µM).
In the case of `O=C(NC[C@H]1CN(c2cc(F)c(N3C=CS(=O)(=O)CC3)c(F)c2)C(=O)O1)C(Cl)Cl`, the MIC in test [1] is 4 µg/mL (≈ 8.51 µM); in test [2], 4 µg/mL (≈ 8.51 µM); in test [3], 0.5 µg/mL (≈ 1.06 µM); in test [4], 1 µg/mL (≈ 2.13 µM); in test [5], 4 µg/mL (≈ 8.51 µM).
Regarding `O=C1O[C@@H](C/N=C(/S)C(F)F)CN1c1cc(F)c(C2C=CS(=O)(=O)CC2)c(F)c1` (stereo partly drawn), the MIC was determined as 16 µg/mL (≈ 35.4 µM) in test [1]; 1 µg/mL (≈ 2.21 µM) in test [2]; 0.5 µg/mL (≈ 1.11 µM) in test [3]; 2 µg/mL (≈ 4.42 µM) in test [4]; 4 µg/mL (≈ 8.84 µM) in test [5].
Take `O=C(NC[C@H]1CN(c2ccc(C3C=CS(=O)(=O)CC3)cc2)C(=O)O1)C(F)F` (stereo partly drawn): the MIC in test [1] was 8 µg/mL (≈ 20 µM); in test [2], 4 µg/mL (≈ 9.99 µM); in test [3], 1 µg/mL (≈ 2.5 µM); in test [4], 4 µg/mL (≈ 9.99 µM); in test [5], 4 µg/mL (≈ 9.99 µM).
Turning to `O=C(NC[C@H]1CN(c2ccc(C3C=CS(=O)(=O)CC3)c(F)c2)C(=O)O1)C(F)F` (stereo partly drawn), the MIC in test [1] is 4 µg/mL (≈ 9.56 µM); in test [2], 2 µg/mL (≈ 4.78 µM); in test [3], 1 µg/mL (≈ 2.39 µM); in test [4], 2 µg/mL (≈ 4.78 µM); in test [5], 4 µg/mL (≈ 9.56 µM).
On to `O=C(NC[C@H]1CN(c2ccc(C3C=CS(=O)(=O)CC3)c(F)c2)C(=O)O1)C(Cl)Cl` (stereo partly drawn), for which the MIC worked out at 4 µg/mL (≈ 8.86 µM) in test [1]; 2 µg/mL (≈ 4.43 µM) in test [2]; 0.5 µg/mL (≈ 1.11 µM) in test [3]; 2 µg/mL (≈ 4.43 µM) in test [4]; 2 µg/mL (≈ 4.43 µM) in test [5].
For the molecule `O=C(NC[C@H]1CN(c2ccc(C3C=CS(=O)(=O)CC3)cc2)C(=O)O1)C(Cl)Cl` (stereo partly drawn), the MIC in test [1] amounted to 4 µg/mL (≈ 9.23 µM); in test [2] it was 2 µg/mL (≈ 4.62 µM); in test [3], 0.5 µg/mL (≈ 1.15 µM); in test [4], 2 µg/mL (≈ 4.62 µM); in test [5] it was 4 µg/mL (≈ 9.23 µM).
With `O=C1O[C@@H](C/N=C(/S)C(F)F)CN1c1ccc(N2C=CS(=O)(=O)CC2)c(F)c1`, the MIC in test [1] amounted to 4 µg/mL (≈ 9.19 µM); in test [2] it was 1 µg/mL (≈ 2.3 µM); in test [3] it was 0.5 µg/mL (≈ 1.15 µM); in test [4], 1 µg/mL (≈ 2.3 µM); in test [5], 4 µg/mL (≈ 9.19 µM).
Regarding `CC(=O)NC[C@H]1CN(c2cc(F)c(C3C=CS(=O)(=O)CC3)c(F)c2)C(=O)O1` (stereo partly drawn), the MIC amounted to 8 µg/mL (≈ 20 µM) in test [1]; 4 µg/mL (≈ 9.99 µM) in test [2]; 1 µg/mL (≈ 2.5 µM) in test [3]; 2 µg/mL (≈ 4.99 µM) in test [4]; 8 µg/mL (≈ 20 µM) in test [5].
Consider `O=C1O[C@@H](C/N=C(/S)C(F)F)CN1c1ccc(N2C=CS(=O)(=O)CC2)cc1`, for which the MIC in test [1] was determined as 4 µg/mL (≈ 9.58 µM); in test [2], 2 µg/mL (≈ 4.79 µM); in test [3], 0.5 µg/mL (≈ 1.2 µM); in test [4], 1 µg/mL (≈ 2.4 µM); in test [5], 4 µg/mL (≈ 9.58 µM).
